Measured values reported in patent US20260234115A1, “LIPID COMPOUNDS, COMPOSITIONS, AND USES THEREOF” (Liberate Bio, Inc., priority 2023, published 2026).
Marks after values point to notes of the source that are not given here.

Test system: mouse organs
Test: In vivo activity screening in mice: organ mean total flux (p/s) of luciferase activity after injection of F2 LNP pools (Table 6, FIG. 7A-7C)
Settings: luciferase mRNA
Method: Small rodent biodistribution studies were performed in mice (e.g., C57BL/6J, Balb-c, CD-1, etc.). For evaluating LNP biodistribution and tissue activity upon systemic administration, C57BL/6J mice received dose administration by single intravenous injection via tail vein with LNP formulations (individual or pooled) in PBS, at different dose (0.25-3 mg/kg) levels of firefly luciferase mRNA. At predetermined time points (4-6 hours post-injection), the animals were anesthetized via isoflurane and subjected to in-life imaging sessions for bioluminescence using an In Vivo Imaging System (IVIS). All animals were dosed with D-Luciferin at 15 mg/mL via subcutaneous (SC) injection at 0.2 mL/animal. Animals had their abdomen hair shaved using an animal trimmer. They were then placed so their shaved belly faced up toward the IVIS camera. Whole body imaging sessions were performed 10-15 minutes following D-Luciferin administration.
For in detail organ distribution and activity of LNP formulations, ex vivo imaging sessions were also performed. All animals received SC D-Luciferin and were then euthanized by isoflurane overdose, followed by cardiac perfusion with saline. Following perfusion, the organs were collected and subjected to IVIS imaging for luminescence within 10-15 minutes of D-Luciferin injection.
All IVIS images were processed with a computer software to identify the regions of interests for individual organs to detect the total flux (p/s) values as luminescence quantification. Then the total flux values were graphed to evaluate the in vivo activity in each collected organ.
Small rodent biodistribution studies were performed in mice according to the General Study Protocols in Example 3(a). LNPs incorporating lipid compounds were prepared in Formulation F2, with MC3 as lipid compound (Cayman Chemical) prepared using Formulation F2 for comparison. LNP pools (with firefly luciferase mRNA encapsulated) were injected into mice at varying doses, and organ mean total flux (p/s) results (measuring luciferase activity) were then collected according to Example 3(a).
LNPs comprising MC3 used as a control and for cross-mouse comparison. Dose is in mg/kg; LC is Lipid Compound according to Table 1.
Additional screening results for Compounds 7, 13, 14, 26, 33, 38, 39, 40, 48, 60, 61, 89, 103, and 109 in spleen, femur, and muscle are shown in FIG. 7A, FIG. 7B, and FIG. 7C, with MC3 as a used as a control for comparison.

CCCCCCCCOC(=O)CCCCCC(=O)OCC(COC(=O)CCCCCC(=O)OCCCCCCCC)(COC(=O)CCCCCC(=O)OCCCCCCCC)COC(=O)CCC(CCCCCC)OC(=O)NCCN1CCCC1 (stereo not drawn) [Compound 34, O7-[2,2-bis[(7-octoxy-7-oxo-heptanoyl)oxymethyl]-3-[4-(2-pyrrolidin-1-ylethylcarbamoyloxy)decanoyloxy]propyl]O1-octyl heptanedioate]
Organ Mean Total Flux Femur (Mouse 6, dose 0.5 mg/kg): 10.5 p/s (×10^6) | Organ Mean Total Flux Heart (Mouse 6, dose 0.5 mg/kg): 3.3 p/s (×10^6) | Organ Mean Total Flux Kidney (Mouse 6, dose 0.5 mg/kg): 6.7 p/s (×10^6) | Organ Mean Total Flux Liver (Mouse 6, dose 0.5 mg/kg): 1610 p/s (×10^6) | Organ Mean Total Flux Lung (Mouse 6, dose 0.5 mg/kg): 20.2 p/s (×10^6) | Organ Mean Total Flux Muscle (Mouse 6, dose 0.5 mg/kg): 28.3 p/s (×10^6) | Organ Mean Total Flux Pancreas (Mouse 6, dose 0.5 mg/kg): 12.8 p/s (×10^6) | Organ Mean Total Flux Spleen (Mouse 6, dose 0.5 mg/kg): 39.4 p/s (×10^6)

CCCCCCC(CCC(=O)OCC(COC(=O)CCCC(=O)OCCC(CCCCC)CCCCC)(COC(=O)CCCC(=O)OCCC(CCCCC)CCCCC)COC(=O)CCCC(=O)OCCC(CCCCC)CCCCC)OC(=O)NCCN1CCCC1 (stereo not drawn) [Compound 54, O5-[2,2-bis[[5-oxo-5-(3-pentyloctoxy)pentanoyl]oxymethyl]-3-[4-(2-pyrrolidin-1-ylethylcarbamoyloxy)decanoyloxy]propyl]O1-(3-pentyloctyl) pentanedioate]
Organ Mean Total Flux Femur (Mouse 3, dose 1.0 mg/kg): 9.0 p/s (×10^6) | Organ Mean Total Flux Heart (Mouse 3, dose 1.0 mg/kg): 19.3 p/s (×10^6) | Organ Mean Total Flux Kidney (Mouse 3, dose 1.0 mg/kg): 60.3 p/s (×10^6) | Organ Mean Total Flux Liver (Mouse 3, dose 1.0 mg/kg): 24850 p/s (×10^6) | Organ Mean Total Flux Lung (Mouse 3, dose 1.0 mg/kg): 81.5 p/s (×10^6) | Organ Mean Total Flux Muscle (Mouse 3, dose 1.0 mg/kg): 19.2 p/s (×10^6) | Organ Mean Total Flux Pancreas (Mouse 3, dose 1.0 mg/kg): 3.6 p/s (×10^6) | Organ Mean Total Flux Spleen (Mouse 3, dose 1.0 mg/kg): 9.6 p/s (×10^6)

CCCCC/C=C\CCOC(=O)CCCCC(=O)OCC(COC(=O)CCCCC(=O)OCC/C=C\CCCCC)(COC(=O)CCC(CCCCCC)OC(=O)NCCN1CCCC1)COC(=O)CC12CC(C1)C2 (stereo not drawn) [Compound 91, O6-[2-[[2-(1-bicyclo[1.1.1]pentanyl)acetyl]oxymethyl]-2-[[6-[(Z)-non-3-enoxy]-6-oxo-hexanoyl]oxymethyl]-3-[4-(2-pyrrolidin-1ylethylcarbamoyloxy)decanoyloxy]propyl]O1-[(Z)-non-3-enyl]hexanedioate]
Organ Mean Total Flux Femur (Mouse 12, dose 0.5 mg/kg): 15.8 p/s (×10^6) | Organ Mean Total Flux Heart (Mouse 12, dose 0.5 mg/kg): 2.6 p/s (×10^6) | Organ Mean Total Flux Kidney (Mouse 12, dose 0.5 mg/kg): 12.3 p/s (×10^6) | Organ Mean Total Flux Liver (Mouse 12, dose 0.5 mg/kg): 404.7 p/s (×10^6) | Organ Mean Total Flux Lung (Mouse 12, dose 0.5 mg/kg): 26.3 p/s (×10^6) | Organ Mean Total Flux Muscle (Mouse 12, dose 0.5 mg/kg): 7.8 p/s (×10^6) | Organ Mean Total Flux Pancreas (Mouse 12, dose 0.5 mg/kg): 76.4 p/s (×10^6) | Organ Mean Total Flux Spleen (Mouse 12, dose 0.5 mg/kg): 123.6 p/s (×10^6)

CCCCCCC(CCC(=O)OCC(COC(=O)CCCCC(=O)OCCC(CCCC)CCCCC)(COC(=O)CCCCC(=O)OCCC(CCCCC)CCCCC)COC(=O)CCCCC(=O)OCCC(CCCCC)CCCCC)OC(=O)NCCN1CCCC1 (stereo not drawn) [Compound 53]
Organ Mean Total Flux Femur (Mouse 3, dose 1.0 mg/kg): 2.5 p/s (×10^6) | Organ Mean Total Flux Heart (Mouse 3, dose 1.0 mg/kg): 2.1 p/s (×10^6) | Organ Mean Total Flux Kidney (Mouse 3, dose 1.0 mg/kg): 2.2 p/s (×10^6) | Organ Mean Total Flux Liver (Mouse 3, dose 1.0 mg/kg): 1286 p/s (×10^6) | Organ Mean Total Flux Lung (Mouse 3, dose 1.0 mg/kg): 12.1 p/s (×10^6) | Organ Mean Total Flux Muscle (Mouse 3, dose 1.0 mg/kg): 5.5 p/s (×10^6) | Organ Mean Total Flux Pancreas (Mouse 3, dose 1.0 mg/kg): 2.3 p/s (×10^6) | Organ Mean Total Flux Spleen (Mouse 3, dose 1.0 mg/kg): 9.3 p/s (×10^6)

CCCCCCC(CCC(=O)OCC(COC(=O)CCCCCC(=O)OCCC(CCCCC)CCCCC)(COC(=O)CCCCCC(=O)OCCC(CCCCC)CCCCC)COC(=O)CCCCCC(=O)OCCC(CCCCC)CCCCC)OC(=O)NCCN1CCCC1 (stereo not drawn) [Compound 52]
Organ Mean Total Flux Femur (Mouse 3, dose 1.0 mg/kg): 6.0 p/s (×10^6) | Organ Mean Total Flux Heart (Mouse 3, dose 1.0 mg/kg): 9.0 p/s (×10^6) | Organ Mean Total Flux Kidney (Mouse 3, dose 1.0 mg/kg): 8.4 p/s (×10^6) | Organ Mean Total Flux Liver (Mouse 3, dose 1.0 mg/kg): 12143 p/s (×10^6) | Organ Mean Total Flux Lung (Mouse 3, dose 1.0 mg/kg): 56.0 p/s (×10^6) | Organ Mean Total Flux Muscle (Mouse 3, dose 1.0 mg/kg): 15.1 p/s (×10^6) | Organ Mean Total Flux Pancreas (Mouse 3, dose 1.0 mg/kg): 4.7 p/s (×10^6) | Organ Mean Total Flux Spleen (Mouse 3, dose 1.0 mg/kg): 6.1 p/s (×10^6)

CCCCCCCCC(C)OC(=O)CCCCCC(=O)OCC(COC(=O)CCCCCC(=O)OC(C)CCCCCCCC)(COC(=O)CCCCCC(=O)OC(C)CCCCCCCC)COC(=O)CCC(CCCCCC)OC(=O)NCCN1CCCC1 (stereo not drawn) [Compound 40, O1-[2,2-bis[[7-(1-methylnonoxy)-7-oxo-heptanoyl]oxymethyl]-3-[4-(2-pyrrolidin-1-ylethylcarbamoyloxy)decanoyloxy]propyl]O7-(1-methylnonyl)heptanedioate]
Organ Mean Total Flux Femur (Mouse 6, dose 0.5 mg/kg): 10.9 p/s (×10^6) | Organ Mean Total Flux Heart (Mouse 6, dose 0.5 mg/kg): 6.0 p/s (×10^6) | Organ Mean Total Flux Kidney (Mouse 6, dose 0.5 mg/kg): 5.1 p/s (×10^6) | Organ Mean Total Flux Liver (Mouse 6, dose 0.5 mg/kg): 3230 p/s (×10^6) | Organ Mean Total Flux Lung (Mouse 6, dose 0.5 mg/kg): 27.7 p/s (×10^6) | Organ Mean Total Flux Muscle (Mouse 6, dose 0.5 mg/kg): 34.4 p/s (×10^6) | Organ Mean Total Flux Pancreas (Mouse 6, dose 0.5 mg/kg): 4.6 p/s (×10^6) | Organ Mean Total Flux Spleen (Mouse 6, dose 0.5 mg/kg): 6.4 p/s (×10^6)

CCCCC/C=C\CCCOC(=O)CCCCCC(=O)OCC(COC(=O)CCCCCC(=O)OCCC/C=C\CCCCC)(COC(=O)CCCCCC(=O)OCCC/C=C\CCCCC)COC(=O)CCC(CCCCCC)OC(=O)NCCN1CCCC1 (stereo not drawn) [Compound 45, O7-[2,2-bis[[7-[(Z)-dec-4-enoxy]-7-oxo-heptanoyl]oxymethyl]-3-[4-(2-pyrrolidin-1ylethylcarbamoyloxy)decanoyloxy]propyl]O1-[(Z)-dec-4-enyl]heptanedioate]
Organ Mean Total Flux Femur (Mouse 11, dose 0.5 mg/kg): 1.0 p/s (×10^6) | Organ Mean Total Flux Heart (Mouse 11, dose 0.5 mg/kg): 1.1 p/s (×10^6) | Organ Mean Total Flux Kidney (Mouse 11, dose 0.5 mg/kg): 0.9 p/s (×10^6) | Organ Mean Total Flux Liver (Mouse 11, dose 0.5 mg/kg): 809.3 p/s (×10^6) | Organ Mean Total Flux Lung (Mouse 11, dose 0.5 mg/kg): 7.2 p/s (×10^6) | Organ Mean Total Flux Muscle (Mouse 11, dose 0.5 mg/kg): 5.6 p/s (×10^6) | Organ Mean Total Flux Pancreas (Mouse 11, dose 0.5 mg/kg): 0.5 p/s (×10^6) | Organ Mean Total Flux Spleen (Mouse 11, dose 0.5 mg/kg): 6.0 p/s (×10^6)

CCCCC/C=C\CCOC(=O)CCCCCCC(=O)OCC(COC(=O)CCCCCCC(=O)OCC/C=C\CCCCC)(COC(=O)CCCCCCC(=O)OCC/C=C\CCCCC)COC(=O)CCC(CCCCCC)OC(=O)OCCCN1CCCC1 (stereo not drawn) [Compound 31, O8-[2,2-bis[[8-[(Z)-non-3-enoxy]-8-oxo-octanoyl]oxymethyl]-3-[4-(3-pyrrolidin-1-ylpropoxycarbonyloxy)decanoyloxy]propyl]O1-[(Z)-non-3-enyl]octanedioate]
Organ Mean Total Flux Femur (Mouse 5, dose 0.5 mg/kg): 0.9 p/s (×10^6) | Organ Mean Total Flux Heart (Mouse 5, dose 0.5 mg/kg): 0.1 p/s (×10^6) | Organ Mean Total Flux Kidney (Mouse 5, dose 0.5 mg/kg): 0.1 p/s (×10^6) | Organ Mean Total Flux Liver (Mouse 5, dose 0.5 mg/kg): 26.8 p/s (×10^6) | Organ Mean Total Flux Lung (Mouse 5, dose 0.5 mg/kg): 1.2 p/s (×10^6) | Organ Mean Total Flux Muscle (Mouse 5, dose 0.5 mg/kg): 1.0 p/s (×10^6) | Organ Mean Total Flux Pancreas (Mouse 5, dose 0.5 mg/kg): 0.2 p/s (×10^6) | Organ Mean Total Flux Spleen (Mouse 5, dose 0.5 mg/kg): 2.0 p/s (×10^6)

CCCCCCCCOC(=O)CCCCCCC(=O)OCC(COC(=O)CCCCCCC(=O)OCCCCCCCC)(COC(=O)CCCCCCC(=O)OCCCCCCCC)COC(=O)CCC(CCCCCC)OC(=O)NCCN1CCCC1 (stereo not drawn) [Compound 33, O8-[2,2-bis[(8-octoxy-8-oxo-octanoyl)oxymethyl]-3-[4-(2-pyrrolidin-1-ylethylcarbamoyloxy)decanoyloxy]propyl]O1-octyl octanedioate]
Organ Mean Total Flux Femur (Mouse 6, dose 0.5 mg/kg): 21.3 p/s (×10^6) | Organ Mean Total Flux Heart (Mouse 6, dose 0.5 mg/kg): 2.8 p/s (×10^6) | Organ Mean Total Flux Kidney (Mouse 6, dose 0.5 mg/kg): 3.0 p/s (×10^6) | Organ Mean Total Flux Liver (Mouse 6, dose 0.5 mg/kg): 1024 p/s (×10^6) | Organ Mean Total Flux Lung (Mouse 6, dose 0.5 mg/kg): 16.9 p/s (×10^6) | Organ Mean Total Flux Muscle (Mouse 6, dose 0.5 mg/kg): 53.7 p/s (×10^6) | Organ Mean Total Flux Pancreas (Mouse 6, dose 0.5 mg/kg): 9.2 p/s (×10^6) | Organ Mean Total Flux Spleen (Mouse 6, dose 0.5 mg/kg): 30.1 p/s (×10^6)
